Test results taken from ChEMBL document CHEMBL6071152, “Design, synthesis, and biological evaluation of oridonin derivatives as novel NLRP3 inflammasome inhibitors for the treatment of acute lung injury” (Eur J Med Chem, 2024).
The source made the active and inactive calls. No cut-off for these calls is given here.

Assays:
Mus musculus [1] = experiment: Anti-inflammatory activity against LPS-stimulated acute lung injury C57BL/6 mouse model assessed as decrease in IL-6 level in serum at 0.1 to 1 mg/kg, ip treated for 3 days and on third day administered with LPS at 30 mins post-compound challenge and measured after 12 hrs by ELISA; format: functional, organism-based; settings: dose 0.1-1 mg/kg, time 3.5 day
[2] = target: NACHT, LRR and PYD domains-containing protein 3 (Mus musculus) (UniProt Q8R4B8); experiment: Inhibition of NLRP3 inflammasome activation in ICR mouse BMDM assessed as inhibition of LPS/MSU-stimulated IL-1 beta secretion in cell supernatant at 1 uM treated for 3 hrs with LPS followed by incubation with compound for 1 hr and later stimulated with MSU for 4 hrs by ELISA; format: cell-based; settings: time 5.0 hrs
[3] = target: NACHT, LRR and PYD domains-containing protein 3 (Mus musculus) (UniProt Q8R4B8); experiment: Inhibition of NLRP3 inflammasome priming in ICR mouse BMDM assessed as inhibition of pro-caspase-1 protein expression in cell lysate at 1 uM treated for 3 hrs with LPS followed by incubation with compound for 1 hr and later stimulated with MSU for 4 hrs by western blot analysis; format: subcellular; settings: time 5.0 hrs
[4] = target: NACHT, LRR and PYD domains-containing protein 3 (Mus musculus) (UniProt Q8R4B8); experiment: Inhibition of NLRP3 inflammasome activation in ICR mouse BMDM assessed as inhibition of LPS/ATP-stimulated caspase-1 expression in cell supernatant treated for 3 hrs with LPS followed by incubation with compound for 1 hr and later stimulated with ATP for 0.5 hrs by western blot analysis; format: cell-based; settings: dose 0.2-5 µM, time 1.5 hrs
[5] = target: NACHT, LRR and PYD domains-containing protein 3 (Mus musculus) (UniProt Q8R4B8); experiment: Inhibition of NLRP3 inflammasome activation in ICR mouse BMDM assessed as inhibition of LPS/MSU-stimulated IL-1 beta expression in cell supernatant at 1 uM treated for 3 hrs with LPS followed by incubation with compound for 1 hr and later stimulated with MSU for 4 hrs by western blot analysis; format: cell-based; settings: time 5.0 hrs
[6] = target: NACHT, LRR and PYD domains-containing protein 3 (Mus musculus) (UniProt Q8R4B8); experiment: Inhibition of NLRP3 inflammasome priming in ICR mouse BMDM assessed as inhibition of NLRP3 protein expression in cell lysate at 0.2 to 5 uM treated for 3 hrs with LPS followed by incubation with compound for 1 hr and later stimulated with ATP for 0.5 hrs by western blot analysis; format: subcellular; settings: dose 0.2-5 µM, time 1.5 hrs
Mus musculus [7] = experiment: (§1) Anti-inflammatory activity against LPS-stimulated acute lung injury C57BL/6 mouse model assessed as decrease in partial alveolar congestion in right lung at 1 to 10 mg/kg, ip treated for 3 days and on third day administered with LPS at 30 mins post-compound challenge and measured after 12 hrs by Hematoxylin-Eosin staining analysis; format: functional, organism-based; settings: dose 1-10 mg/kg, time 3.5 day
[8] = target: NACHT, LRR and PYD domains-containing protein 3 (Mus musculus) (UniProt Q8R4B8); experiment: Inhibition of NLRP3 inflammasome priming in ICR mouse BMDM assessed as inhibition of pro-caspase-1 expression in cell lysate at 1 uM treated for 3 hrs with LPS followed by incubation with compound for 1 hr and later stimulated with nigericin for 0.5 hrs by western blot analysis; format: subcellular; settings: time 1.5 hrs
[9] = target: NACHT, LRR and PYD domains-containing protein 3 (Mus musculus) (UniProt Q8R4B8); experiment: (§2) Inhibition of NLRP3 inflammasome activation in ICR mouse BMDM assessed as inhibition of LPS/MSU-stimulated caspase-1 expression in cell supernatant at 1 uM treated for 3 hrs with LPS followed by incubation with compound for 1 hr and later stimulated with MSU for 4 hrs by western blot analysis; format: cell-based; settings: time 5.0 hrs
[10] = target: NACHT, LRR and PYD domains-containing protein 3 (Homo sapiens, UniProt Q96P20); experiment: Binding affinity to NLRP3 (unknown origin) by SPR assay
[11] = target: NACHT, LRR and PYD domains-containing protein 3 (Mus musculus) (UniProt Q8R4B8); experiment: Inhibition of NLRP3 inflammasome priming in ICR mouse BMDM assessed as inhibition of pro-caspase-1 protein expression in cell lysate at 0.2 to 5 uM treated for 3 hrs with LPS followed by incubation with compound for 1 hr and later stimulated with ATP for 0.5 hrs by western blot analysis; format: subcellular; settings: dose 0.2-5 µM, time 1.5 hrs
Mus musculus [12] = experiment: Anti-inflammatory activity against LPS-stimulated acute lung injury C57BL/6 mouse model assessed as active animal at 10 mg/kg, ip treated for 3 days and on third day administered with LPS at 30 mins post-compound challenge; format: functional, organism-based; settings: time 3.0 day
Mus musculus [13] = experiment: Anti-inflammatory activity against LPS-stimulated acute lung injury C57BL/6 mouse model assessed as decrease in weight loss at 0.1 to 1 mg/kg, ip treated for 3 days and on third day administered with LPS at 30 mins post-compound challenge; format: functional, organism-based; settings: dose 0.1-1 mg/kg, time 3.0 day
[14] = target: T1, Interferon-inducible protein AIM2 (Mus musculus) (UniProt Q91VJ1); experiment: as §2, with “AIM2” for “NLRP3”, “poly(dA:dT)-stimulated” for “LPS/MSU-stimulated”, “cells transfected” for “stimulated”, “poly(dA:dT)” for “MSU”; format: cell-based; settings: time 5.0 hrs
T1 sequence (whole entry): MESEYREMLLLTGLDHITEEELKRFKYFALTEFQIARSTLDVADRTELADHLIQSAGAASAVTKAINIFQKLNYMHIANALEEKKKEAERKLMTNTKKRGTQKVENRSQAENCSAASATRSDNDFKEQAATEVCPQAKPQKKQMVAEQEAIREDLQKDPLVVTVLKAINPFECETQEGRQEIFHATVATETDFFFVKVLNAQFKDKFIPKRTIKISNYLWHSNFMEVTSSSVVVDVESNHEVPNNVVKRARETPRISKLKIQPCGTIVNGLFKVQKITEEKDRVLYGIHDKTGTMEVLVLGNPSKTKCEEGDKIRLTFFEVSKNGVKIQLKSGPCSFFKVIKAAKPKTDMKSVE

Mus musculus [15] = experiment: as §1, with “thickening of” for “partial”, “septa” for “congestion”; format: functional, organism-based; settings: dose 1-10 mg/kg, time 3.5 day
[16] = target: NACHT, LRR and PYD domains-containing protein 3 (Mus musculus) (UniProt Q8R4B8); experiment: Inhibition of NLRP3 inflammasome priming in ICR mouse BMDM assessed as inhibition of pro-IL-1 beta protein expression in cell lysate at 0.2 to 5 uM treated for 3 hrs with LPS followed by incubation with compound for 1 hr and later stimulated with ATP for 0.5 hrs by western blot analysis; format: subcellular; settings: dose 0.2-5 µM, time 1.5 hrs
[17] = target: NACHT, LRR and PYD domains-containing protein 3 (Mus musculus) (UniProt Q8R4B8); experiment: Inhibition of NLRP3 inflammasome priming in ICR mouse BMDM assessed as inhibition of pro-IL-1 beta expression in cell lysate at 1 uM treated for 3 hrs with LPS followed by incubation with compound for 1 hr and later stimulated with nigericin for 0.5 hrs by western blot analysis; format: subcellular; settings: time 1.5 hrs
[18] = target: NACHT, LRR and PYD domains-containing protein 3 (Mus musculus) (UniProt Q8R4B8); experiment: Inhibition of NLRP3 inflammasome priming in ICR mouse BMDM assessed as inhibition of pro-IL-1 beta expression in cell supernatant at 0.2 to 5 uM pretreated with compound for 1 hr followed by stimulation with LPS for 3 hrs and later incubated with ATP for 30 mins by western blot analysis; format: cell-based; settings: dose 0.2-5 µM, time 4.5 hrs
Mus musculus [19] = experiment: Anti-inflammatory activity against LPS-stimulated acute lung injury C57BL/6 mouse model assessed as decrease in TNF-alpha level in serum at 0.1 to 1 mg/kg, ip treated for 3 days and on third day administered with LPS at 30 mins post-compound challenge and measured after 12 hrs by ELISA; format: functional, organism-based; settings: dose 0.1-1 mg/kg, time 3.5 day
Mus musculus [20] = experiment: Anti-inflammatory activity against LPS-stimulated acute lung injury C57BL/6 mouse model assessed as decrease in IL-1 beta level in BALF at 0.1 to 1 mg/kg, ip treated for 3 days and on third day administered with LPS at 30 mins post-compound challenge and measured after 12 hrs by ELISA; format: functional, organism-based; settings: dose 0.1-1 mg/kg, time 3.5 day
Mus musculus [21] = experiment: as §1, with “in caspase-1 expression” for “in partial alveolar congestion”, “at 0.1” for “at 1”, “by western blot” for “by Hematoxylin-Eosin staining”; format: functional, organism-based; settings: dose 0.1-10 mg/kg, time 3.5 day

Chain of NACHT, LRR and PYD domains-containing protein 3 (Mus musculus) (Q8R4B8 whole entry, the tested form may be a part): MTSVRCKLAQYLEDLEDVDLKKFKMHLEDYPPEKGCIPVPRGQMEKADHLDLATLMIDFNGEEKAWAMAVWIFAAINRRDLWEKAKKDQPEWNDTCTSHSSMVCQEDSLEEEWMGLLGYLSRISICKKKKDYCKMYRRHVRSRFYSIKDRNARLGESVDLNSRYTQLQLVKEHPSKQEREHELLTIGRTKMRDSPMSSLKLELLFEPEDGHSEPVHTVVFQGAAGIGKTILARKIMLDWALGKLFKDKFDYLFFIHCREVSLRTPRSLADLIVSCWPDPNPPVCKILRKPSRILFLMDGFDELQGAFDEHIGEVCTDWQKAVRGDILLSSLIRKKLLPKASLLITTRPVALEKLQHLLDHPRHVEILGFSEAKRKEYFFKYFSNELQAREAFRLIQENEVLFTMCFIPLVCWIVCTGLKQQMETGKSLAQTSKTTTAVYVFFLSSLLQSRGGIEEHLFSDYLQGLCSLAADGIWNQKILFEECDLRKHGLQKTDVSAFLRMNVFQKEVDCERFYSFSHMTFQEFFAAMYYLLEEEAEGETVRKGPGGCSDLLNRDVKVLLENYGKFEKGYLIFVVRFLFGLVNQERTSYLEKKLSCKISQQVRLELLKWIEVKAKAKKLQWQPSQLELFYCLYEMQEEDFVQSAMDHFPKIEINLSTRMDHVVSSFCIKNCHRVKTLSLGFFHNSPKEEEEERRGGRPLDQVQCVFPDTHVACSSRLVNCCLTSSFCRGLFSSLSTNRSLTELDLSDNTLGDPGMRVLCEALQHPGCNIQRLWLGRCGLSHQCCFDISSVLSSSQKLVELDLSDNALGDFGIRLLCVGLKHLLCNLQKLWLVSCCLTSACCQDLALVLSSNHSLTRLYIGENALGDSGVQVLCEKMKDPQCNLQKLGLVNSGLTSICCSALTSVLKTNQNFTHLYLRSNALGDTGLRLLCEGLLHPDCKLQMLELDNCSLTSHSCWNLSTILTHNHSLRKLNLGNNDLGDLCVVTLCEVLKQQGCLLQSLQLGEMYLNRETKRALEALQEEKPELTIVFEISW
Chain of NACHT, LRR and PYD domains-containing protein 3 (Q96P20 whole entry, the tested form may be a part): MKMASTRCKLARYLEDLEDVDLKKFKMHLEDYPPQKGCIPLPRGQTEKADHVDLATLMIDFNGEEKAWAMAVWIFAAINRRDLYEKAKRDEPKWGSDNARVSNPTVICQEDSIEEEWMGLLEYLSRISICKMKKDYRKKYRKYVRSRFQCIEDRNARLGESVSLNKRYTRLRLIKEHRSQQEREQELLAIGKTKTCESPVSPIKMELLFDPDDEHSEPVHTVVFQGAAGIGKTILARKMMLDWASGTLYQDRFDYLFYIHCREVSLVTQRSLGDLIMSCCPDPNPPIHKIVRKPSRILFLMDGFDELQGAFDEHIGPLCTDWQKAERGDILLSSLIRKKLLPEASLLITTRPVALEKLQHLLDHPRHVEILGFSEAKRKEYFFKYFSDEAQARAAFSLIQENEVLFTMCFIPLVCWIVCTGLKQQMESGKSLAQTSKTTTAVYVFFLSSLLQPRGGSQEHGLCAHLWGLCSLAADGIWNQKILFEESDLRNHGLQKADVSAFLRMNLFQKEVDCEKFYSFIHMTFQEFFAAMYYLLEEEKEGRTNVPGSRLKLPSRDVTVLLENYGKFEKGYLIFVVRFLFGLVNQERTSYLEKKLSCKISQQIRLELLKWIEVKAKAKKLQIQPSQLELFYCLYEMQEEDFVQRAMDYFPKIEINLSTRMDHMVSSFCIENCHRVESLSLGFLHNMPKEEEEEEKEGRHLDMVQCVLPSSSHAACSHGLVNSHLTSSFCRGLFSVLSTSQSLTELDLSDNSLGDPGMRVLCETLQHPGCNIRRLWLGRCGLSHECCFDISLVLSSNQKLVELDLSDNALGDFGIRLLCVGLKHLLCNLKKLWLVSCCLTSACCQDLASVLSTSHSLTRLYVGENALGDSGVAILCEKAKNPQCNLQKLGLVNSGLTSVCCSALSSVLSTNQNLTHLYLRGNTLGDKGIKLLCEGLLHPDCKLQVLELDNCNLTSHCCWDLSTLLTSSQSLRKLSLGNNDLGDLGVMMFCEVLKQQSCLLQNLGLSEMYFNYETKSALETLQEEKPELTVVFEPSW

C=C1C(=O)[C@]23[C@H](OC(=O)Nc4ccc(F)cc4)[C@H]1CC[C@H]2[C@]12C=CCC(C)(C)[C@H]1[C@H](O)[C@@]3(O)OC2
Activity (Mus musculus [1]): Dose-Dependent Effect | inhibition [2]: Active | inhibition [3]: inactive | inhibition [4]: Dose-Dependent Effect | inhibition [5]: Active | inhibition [6]: inactive | Activity (Mus musculus [7]): Active | inhibition [8]: inactive | inhibition [9]: Active | Kd [10]: 5.17 µM | inhibition [11]: inactive | Activity (Mus musculus [12]): Active | Activity (Mus musculus [13]): Active | inhibition [14]: inactive | Activity (Mus musculus [15]): Active | inhibition [16]: inactive | inhibition [17]: inactive | inhibition [18]: inactive | Activity (Mus musculus [19]): Dose-Dependent Effect | Activity (Mus musculus [20]): Dose-Dependent Effect | Activity (Mus musculus [21]): Active
